Laboratory results taken from the OPERA property sets (Mansouri et al. 2018).

Details: 24.0 °C

Row | SMILES | log10 OH rate constant (cm³/molecule/s)
1 | CSSC | -9.64

Same assay, conditions: 25.0 °C

Row | SMILES | log10 OH rate constant (cm³/molecule/s)
2 | CCC(C)=C(C)C | -9.99
3 | CCC[N+](=O)[O-] | -12.4
4 | CC(C)C(C)C(C)C | -11.2
5 | C1=CC2CCC1CC2 | -10.4
6 | CCOCCO | -10.8
7 | CCCCCCO | -10.9
8 | CCCC(=O)OC | -11.5
9 | CCCO | -11.3
10 | CCOP(=O)(OCC)OCC | -10.3
11 | Cl/C=C\CCl | -11
12 | CC(F)(F)C(F)(Cl)Cl | -14.6
13 | COP(=O)(OC)SC | -11
14 | CC(Cl)(Cl)Cl | -14
15 | CCC=C(C)C | -10.1
16 | FC(F)OCC(F)(F)F | -13.9
17 | CCc1ccccc1 | -11.1
18 | ClCC(Cl)(Cl)Cl | -13.7
19 | ClCC(Cl)Cl | -12.7
20 | C#CCCCC | -10.9
21 | FC(F)F | -15.5
22 | Cc1cccc(C)c1O | -10.2
23 | CCCCCO[N+](=O)[O-] | -11.5
24 | CC(F)(F)Cl | -14.5
25 | CCOC(=O)CC | -11.7
26 | CCCCCCCCCCCCCCC | -10.7

Row | SMILES | log10 OH rate constant (cm³/molecule/s)
27 | FC(C(F)C(F)(F)C(F)(F)F)C(F)(F)F (configuration not stated) | -14.5
28 | COC | -11.5
29 | C[N+](=O)[O-] | -12.9
30 | CC(C)(C)OC=O | -12.1
31 | COP(=O)(SC)SC | -11
32 | C=C(C)CCC | -10.2
33 | C=C(Cl)Cl | -11
34 | C=CCC(=C)C | -10.1
35 | CC(C)OC(C)C | -11
36 | CC1=CCC2CC1C2(C)C (configuration not stated) | -10.3
37 | CCCOCCO | -10.7
38 | C1=CCCCCC1 | -10.1
39 | O=C1CCCC1 | -11.5
40 | C=CCl | -11.2
41 | CCC#N | -12.7
42 | FCC(F)F | -13.7
43 | CCCCCOC(C)=O | -11.1
44 | Fc1c(F)c(F)c(F)c(F)c1F | -12.8
45 | CC(=O)OC(C)(C)C | -12.3
46 | Clc1ccc(Cl)c(Cl)c1 | -12.3
47 | FC(F)(F)C(Cl)Cl | -13.4
48 | C=C(C)C(=O)OCCOCC | -10.6
49 | CCCOCCC | -10.7
50 | CCC1CO1 (configuration not stated) | -11.7
51 | Clc1cccc(-c2ccccc2)c1 | -11.3

Row | SMILES | log10 OH rate constant (cm³/molecule/s)
52 | FC(F)OC(F)(F)F | -14.5
53 | CO | -12
54 | CC(C)O | -11.3
55 | CCCCOC(C)=O | -11.3
56 | COC(=O)C(F)(F)F | -13.3
57 | COC(F)(F)F | -13.7
58 | CCCCCCC(C)=O | -11
59 | COCCBr | -11.2
60 | CCCCOCCCC | -10.5
61 | CC(C)(C)CO[N+](=O)[O-] | -12.1
62 | C=CC | -10.6
63 | C/C=C\C | -10.2
64 | C=CCCCOC(C)=O | -10.4
65 | CCCCCO | -11
66 | C1=CCCC1 | -10.2
67 | Nc1ccccc1 | -9.95
68 | CCOC=CC(=O)OCC | -10.5
69 | C=CCC | -10.5
70 | C=C(C)[C@H]1CC=C(C)CC1 | -9.77
71 | O=[N+]([O-])OC1CCCCC1 | -11.5
72 | CCCC[N+](=O)[O-] | -11.8
73 | CCCCOCC | -10.7
74 | CC(C)(C)CO | -11.3
75 | CCCCCCCO | -10.9
76 | CC=CCC | -10.2

Row | SMILES | log10 OH rate constant (cm³/molecule/s)
77 | CCOC(C)(C)C | -11.1
78 | Cc1ccc(C)c(O)c1 | -10.1
79 | CC(=O)Cl | -14
80 | FC(F)(Cl)CCl | -13.8
81 | CC(Cl)Cl | -12.6
82 | CCCCOC | -10.8
83 | Clc1ccccc1-c1ccccc1 | -11.5
84 | C=CCCC | -10.5
85 | C/C=C/C(C)C | -10.2
86 | C=CC#N | -11.4
87 | CCCOC(=O)CC | -11.4
88 | Cc1cccc(O)c1C | -10.1
89 | Cc1ccc(O)cc1C | -10.1
90 | C=O | -11
91 | CCCC(=O)OCC | -11.3
92 | COP(=O)(OC)OC | -11.1
93 | C=CC/C=C/C | -10
94 | CCCCOC=O | -11.5
95 | CCCCCOCCCCC | -10.5
96 | FC1C(F)(F)OC1(F)F | -14.6
97 | CC(C)=O | -12.7
98 | CC1=CCC2C(C1)C2(C)C (configuration not stated) | -10.1
99 | CCOCCOC(=O)C(C)C | -10.9
100 | COCC(Cl)Cl | -11.6
101 | Cc1cc(C)cc(O)c1 | -9.95

Row | SMILES | log10 OH rate constant (cm³/molecule/s)
102 | ClCC(Br)CBr (configuration not stated) | -12.4
103 | CCCOC=O | -11.6
104 | COCC(F)(F)F | -12.2
105 | O=CCl | -12.5
106 | C=CC(=O)OCC | -10.8
107 | CCCCO | -11.1
108 | CCCOC(=O)CCC | -11.1
109 | C1CC[C@H]2CCC[C@@H]2C1 (racemic) | -10.8
110 | Cl/C=C\Cl | -11.6
111 | COC(C)(C)C | -11.5
112 | CC(C)CCO[N+](=O)[O-] | -11.7
113 | C1CC1 | -13.1
114 | COC=O | -12.6
115 | CCCCCCCCCCC | -10.9
116 | ClCCCl | -12.6
117 | Cc1ccc(O)c(C)c1 | -10.1
118 | CCCC(C)C | -11.3
119 | FC(Cl)C(F)(F)F (configuration not stated) | -14
120 | C=CCCC(=C)C | -10
121 | FCC(F)(F)F | -14.3
122 | COCCCl | -11.3
